In experiment [1] the test system is mouse colorectal cancer cell line (CT-26) allograft. The experiment is described as follows: Tumor volume in mouse colorectal cancer cell line-transplanted mice (Example 13.2). The experiment is classed as in vivo. Particulars: CT-26 allograft Balb/c mice; WOTS-418 1×10^8 pfu i.p. D0, D3 and 1×10^7 pfu i.t. D14, D21; hydroxyurea 30 mg/kg i.p. once a day.
Experiment [2] concerns CD8+ T cells secreting IFN-γ. The experiment is classed as in vivo, mouse. The settings on record: CT-26 allograft Balb/c mice; same doses and regimens as tumor volume test; co-culture with CT-26 cells.
Experiment [3] has as its system human breast cancer cell line (MDA-MB-231) xenograft. The experiment is described as follows: Tumor volume in human breast cancer cell line-transplanted mice (Example 11). The experiment is classed as in vivo, mouse. Particulars: MDA-MB-231 xenograft Balb/c nu/nu mice. (A xenograft is tissue or cells of one species grown in another, often human tumour cells in immunodeficient mice.)

Bounds are passed on as bounds.

For the substance hydroxyurea, in experiment [1], the “tumor volume on day 25 compared with the control group” value was “suppressed tumor volume”. Also, the “CD8+ T cells secreting IFN-γ among spleen CD8+ T cells, compared with control mice (ELISPOT)” value in experiment [2] is “abundant”. Also, in experiment [3] (HU 30 mg/kg i.p. twice a day, day 31), the “tumor volume on day 31 relative to the initial tumor volume” value is recorded as ≥ 5 fold. Moreover, in experiment [3] (WOTS-418 1×10^7 pfu (D0 i.p., D10 i.t.), hydroxyurea 30 mg/kg i.p. twice a day), the “tumor growth (tumor volume measured for 31 days)” value was “tumor growth was not inhibited”.
